We go through 20 molecules from US12071441B2, “10-(di(phenyl)methyl)-4-hydroxy-8,9,9A,10-tetrahydro-7H-pyrrolo[1′,2′:4,5]pyrazino[1,2-b]pyridazine-3,5-dione derivatives and related compounds as inhibitors of the orthomyxovirus replication for treating influenza” (Novartis AG, priority 2018, dated 2024).

Molecules are shown by their SMILES.

What all share (assay): microbe, parasite or virus in culture
Assay type in all cases: cell-based

The subject of assay [1] is influenza A virus minigenome (PB2, PB1, PA, NP; luciferase reporter) in 293T cells, RNP_CAL. As to conditions: HEK-293T, 48 h, read-out: RNP_CAL_EC50.
Assay [2] relates to influenza A virus minigenome (PB2, PB1, PA, NP; luciferase reporter) in 293T cells, RNP_Hubei. The settings on record: HEK-293T, 48 h.
For assay [3], the system named is influenza A virus minigenome (PB2, PB1, PA, NP; luciferase reporter) in 293T cells, RNP_Alaska. As to conditions: HEK-293T, 48 h.

In the case of `CC(C)(C)OC(=O)Oc1c2n(ncc1=O)[C@@H]([C@H](c1ccccc1)c1cccc(F)c1F)[C@H]1CCCN1C2=O` [Example 49, tert-butyl ((9aR,10S)-10-((R)-(2,3-difluorophenyl)(phenyl)methyl)-3,5-dioxo-3,5,8,9,9a,10-hexahydro-7H-pyrrolo[1′,2′:4,5]pyrazino[1,2-b]pyridazin-4-yl) carbonate], the EC50 in assay [1], in assay [2] and in assay [3] was less than 100 nM throughout.

For the molecule `Cc1c(F)cccc1[C@@H](c1ccc(F)cc1)[C@H]1[C@H]2CCCN2C(=O)c2c(O)c(=O)cnn21` [Example 18, (9aR,10S)-10-((R)-(3-fluoro-2-methylphenyl)(4-fluorophenyl)methyl)-4-hydroxy-8,9,9a,10-tetrahydro-7H-pyrrolo[1′,2′:4,5]pyrazino[1,2-b]pyridazine-3,5-dione], the EC50 in assay [1], in assay [2] and in assay [3] was less than 100 nM throughout.

As for `CN(C)C(=O)Oc1c2n(ncc1=O)[C@@H]([C@H](c1ccccc1)c1cccc(F)c1F)[C@H]1CCCN1C2=O` [Example 35, (9aR,10S)-10-((R)-(2,3-difluorophenyl)(phenyl)methyl)-3,5-dioxo-3,5,8,9,9a,10-hexahydro-7H-pyrrolo[1′,2′:4,5]pyrazino[1,2-b]pyridazin-4-yl dimethylcarbamate], the EC50 in assay [1], in assay [2] and in assay [3] was not below 1000 nM in each case.

On to `O=C(Oc1c2n(ncc1=O)[C@@H]([C@H](c1cccc(F)c1)c1cccc(F)c1F)[C@H]1CCCN1C2=O)N1CCCCC1` [Example 98, (9aR,10S)-10-((R)-(2,3-difluorophenyl)(3-fluorophenyl)methyl)-3,5-dioxo-3,5,8,9,9a,10-hexahydro-7H-pyrrolo[1′,2′:4,5]pyrazino[1,2-b]pyridazin-4-yl piperidine-1-carboxylate], for which the EC50 in assay [1], in assay [2] and in assay [3] was not below 1000 nM in each case.

`CCC(=O)Oc1c2n(ncc1=O)[C@@H]([C@H](c1cccc(F)c1)c1cccc(F)c1F)[C@H]1CCCN1C2=O` [Example 106, (9aR,10S)-10-((R)-(2,3-difluorophenyl)(3-fluorophenyl)methyl)-3,5-dioxo-3,5,8,9,9a,10-hexahydro-7H-pyrrolo[1′,2′:4,5]pyrazino[1,2-b]pyridazin-4-yl propionate]: the EC50 in assay [1], in assay [2] and in assay [3] was less than 100 nM in each case.

Take `COc1cccc([C@H](c2ccc(F)cc2)[C@H]2[C@H]3CCCN3C(=O)c3c(O)c(=O)cnn32)c1` [Example 9, (9aR,10S)-10-((S)-(4-fluorophenyl)(3-methoxyphenyl)methyl)-4-hydroxy-8,9,9a,10-tetrahydro-7H-pyrrolo[1′,2′:4,5]pyrazino[1,2-b]pyridazine-3,5-dione]: the EC50 in assay [1] was 100 to 1000 nM; in assay [2], less than 100 nM; in assay [3], 100 to 1000 nM.

Turning to `O=C(Oc1c2n(ncc1=O)[C@@H]([C@H](c1cccc(F)c1)c1cccc(F)c1F)[C@H]1CCCN1C2=O)N1CCC(N2CCCCC2)CC1` [Example 102, (9aR,10S)-10-((R)-(2,3-difluorophenyl)(3-fluorophenyl)methyl)-3,5-dioxo-3,5,8,9,9a,10-hexahydro-7H-pyrrolo[1′,2′:4,5]pyrazino[1,2-b]pyridazin-4-yl [1,4′-bipiperidine]-1′-carboxylate], the EC50 in assay [1], in assay [2] and in assay [3] was not below 1000 nM in each case.

For `O=C1c2c(O)c(=O)cnn2[C@@H]([C@@H](c2ccc(F)c(F)c2)c2cccc(F)c2F)[C@H]2CCCN12` [Example 27, (9aR,10S)-10-((S)-(2,3-difluorophenyl)(3,4-difluorophenyl)methyl)-4-hydroxy-8,9,9a,10-tetrahydro-7H-pyrrolo[1′,2′:4,5]pyrazino[1,2-b]pyridazine-3,5-dione], the EC50 in assay [1] is less than 100 nM; in assay [2], less than 100 nM; in assay [3] it was 100 to 1000 nM.

With `CC(C)OC(=O)Oc1c2n(ncc1=O)[C@@H]([C@H](c1ccc(F)cc1)c1cccc(F)c1F)[C@H]1CCCN1C2=O` [Example 88, (9aR,10S)-10-((R)-(2,3-difluorophenyl)(4-fluorophenyl)methyl)-3,5-dioxo-3,5,8,9,9a,10-hexahydro-7H-pyrrolo[1′,2′:4,5]pyrazino[1,2-b]pyridazin-4-yl isopropyl carbonate], the EC50 in assay [1], in assay [2] and in assay [3] was less than 100 nM each time.

As to `COC(=O)C(C)(C)OC(=O)OCOc1c2n(ncc1=O)[C@@H]([C@H](c1ccccc1)c1cccc(F)c1F)[C@H]1CCCN1C2=O` [Example 42, methyl 2-((((((9aR,10S)-10-((R)-(2,3-difluorophenyl)(phenyl)methyl)-3,5-dioxo-3,5,8,9,9a,10-hexahydro-7H-pyrrolo[1′,2′:4,5]pyrazino[1,2-b]pyridazin-4-yl)oxy)methoxy)carbonyl)oxy)-2-methylpropanoate], the EC50 in assay [1], in assay [2] and in assay [3] was 100 to 1000 nM throughout.

For the molecule `COc1cccc([C@@H](c2cccc(F)c2F)[C@H]2[C@H]3CCCN3C(=O)c3c(O)c(=O)cnn32)c1` [Example 29, (9aR,10S)-10-((S)-(2,3-difluorophenyl)(3-methoxyphenyl)methyl)-4-hydroxy-8,9,9a,10-tetrahydro-7H-pyrrolo[1′,2′:4,5]pyrazino[1,2-b]pyridazine-3,5-dione], the EC50 in assay [1], in assay [2] and in assay [3] was 100 to 1000 nM each time.

`O=C1c2c(O)c(=O)cnn2[C@@H]([C@@H](c2ccc(F)cc2)c2ccc(C(F)(F)F)cc2)[C@H]2CCCN12` [Example 2, (9aR,10S)-10-((R)-(4-fluorophenyl)(4-(trifluoromethyl)phenyl)methyl)-4-hydroxy-8,9,9a,10-tetrahydro-7H-pyrrolo[1′,2′:4,5]pyrazino[1,2-b]pyridazine-3,5-dione]: the EC50 in assay [1], in assay [2] and in assay [3] was 100 to 1000 nM throughout.

Take `CC(C)C(=O)Oc1c2n(ncc1=O)[C@@H]([C@H](c1ccccc1)c1cccc(F)c1F)[C@H]1CCCN1C2=O` [Example 31, (9aR,10S)-10-((R)-(2,3-difluorophenyl)(phenyl)methyl)-3,5-dioxo-3,5,8,9,9a,10-hexahydro-7H-pyrrolo[1′,2′:4,5]pyrazino[1,2-b]pyridazin-4-yl isobutyrate]: the EC50 in assay [1], in assay [2] and in assay [3] was less than 100 nM throughout.

For the molecule `Cc1c([C@@H](c2cccc(F)c2)[C@H]2[C@H]3CCCN3C(=O)c3c(O)c(=O)cnn32)ccc(F)c1F` [Example 11, (9aR,10S)-10-((R)-(3,4-difluoro-2-methylphenyl)(3-fluorophenyl)methyl)-4-hydroxy-8,9,9a,10-tetrahydro-7H-pyrrolo[1′,2′:4,5]pyrazino[1,2-b]pyridazine-3,5-dione], the EC50 in assay [1], in assay [2] and in assay [3] was less than 100 nM throughout.

For the molecule `COc1ccc([C@H](c2ccc(F)cc2)[C@H]2[C@H]3CCCN3C(=O)c3c(O)c(=O)cnn32)cc1` [Example 7, (9aR,10S)-10-((R)-(4-fluorophenyl)(4-methoxyphenyl)methyl)-4-hydroxy-8,9,9a,10-tetrahydro-7H-pyrrolo[1′,2′:4,5]pyrazino[1,2-b]pyridazine-3,5-dione], the EC50 in assay [1], in assay [2] and in assay [3] was 100 to 1000 nM each time.

On to `Cc1oc(=O)oc1COc1c2n(ncc1=O)[C@@H]([C@H](c1cccc(F)c1)c1cccc(F)c1F)[C@H]1CCCN1C2=O` [Example 116, (9aR,10S)-10-((R)-(2,3-difluorophenyl)(3-fluorophenyl)methyl)-4-((5-methyl-2-oxo-1,3-dioxol-4-yl)methoxy)-8,9,9a,10-tetrahydro-7H-pyrrolo[1′,2′:4,5]pyrazino[1,2-b]pyridazine-3,5-dione], for which the EC50 in assay [1], in assay [2] and in assay [3] was less than 100 nM throughout.

For the molecule `COCCOC(=O)OCOc1c2n(ncc1=O)[C@@H]([C@H](c1cccc(F)c1)c1cccc(F)c1F)[C@H]1CCCN1C2=O` [Example 99, (((9aR,10S)-10-((R)-(2,3-difluorophenyl)(3-fluorophenyl)methyl)-3,5-dioxo-3,5,8,9,9a,10-hexahydro-7H-pyrrolo[1′,2′:4,5]pyrazino[1,2-b]pyridazin-4-yl)oxy)methyl (2-methoxyethyl) carbonate], the EC50 in assay [1], in assay [2] and in assay [3] was less than 100 nM in each case.

As to `COCCOC(=O)Oc1c2n(ncc1=O)[C@@H]([C@H](c1cccc(F)c1)c1cccc(F)c1F)[C@H]1CCCN1C2=O` [Example 97, (9aR,10S)-10-((R)-(2,3-difluorophenyl)(3-fluorophenyl)methyl)-3,5-dioxo-3,5,8,9,9a,10-hexahydro-7H-pyrrolo[1′,2′:4,5]pyrazino[1,2-b]pyridazin-4-yl (2-methoxyethyl) carbonate], the EC50 in assay [1], in assay [2] and in assay [3] was less than 100 nM throughout.

As for `CCC(=O)OCOc1c2n(ncc1=O)[C@@H]([C@H](c1ccccc1)c1cccc(F)c1F)[C@H]1CCCN1C2=O` [Example 77, (((9aR,10S)-10-((R)-(2,3-difluorophenyl)(phenyl)methyl)-3,5-dioxo-3,5,8,9,9a,10-hexahydro-7H-pyrrolo[1′,2′:4,5]pyrazino[1,2-b]pyridazin-4-yl)oxy)methyl propionate], the EC50 in assay [1], in assay [2] and in assay [3] was less than 100 nM each time.

For the molecule `COC(C)(C)C(=O)Oc1c2n(ncc1=O)[C@@H]([C@H](c1ccccc1)c1cccc(F)c1F)[C@H]1CCCN1C2=O` [Example 40, (9aR,10S)-10-((R)-(2,3-difluorophenyl)(phenyl)methyl)-3,5-dioxo-3,5,8,9,9a,10-hexahydro-7H-pyrrolo[1′,2′:4,5]pyrazino[1,2-b]pyridazin-4-yl 2-methoxy-2-methylpropanoate], the EC50 in assay [1], in assay [2] and in assay [3] was less than 100 nM in each case.
